Format in all cases: in vivo
For experiment [1], the system named is passive cutaneous anaphylaxis (PCA). The experiment can be described thus: passive cutaneous anaphylaxis (PCA) test in rats, oral. The following applies: Rattus norvegicus, 50 mg/kg p.o., read-out: % Inhibition In Comparison With Controls. The source says: They can be therefore used in prevention and treatment of bronchial asthma, allergic rhinitis, hay fever, urticaria and dermatosis.

The test system of another experiment is stress-induced ulcers. The experiment can be described thus: inhibition of stress-induced ulcers in rats (restraint in a water bath at 25° for 40 minutes). The following applies: 50 mg/kg i.v.
Experiment [2] deals with bronchoconstrictive effect of 5-HT. Briefly: antagonism of the bronchoconstrictive effect of 5-HT in rats. The following applies: 3 mg/kg i.v.
For experiment [3], the system named is bronchoconstrictive effect of compound 48/80 (histamine releasing drug). The experiment can be described thus: antagonism of the bronchoconstrictive effect of compound 48/80 in rats. The following applies: 3 mg/kg i.v.
The test system of experiment [4] is airway resistance and pulmonary compliance. Briefly: airway resistance and pulmonary compliance in rats (technique of Palecek et al.). The following applies: dosage as low as 3 mg/kg i.v. The source says: In addition to anti-allergic activity, the compounds of this invention are effective in decreasing the airway resistance and in increasing pulmonary compliance, and can be therefore used for the treatment of respiratory insufficiency, such as, for example, acute pulmonary insufficiency, as shown by the results obtained in rats using the technique described by Palecek F., Palecekova M., and Aviado D. M. (Arch. Environ. Health, 1967, 15:332-342).

Read-outs that look alike come from different tables or passages of the source.

With `O=C(O)c1ccc2oc(C=Cc3ccccc3)cc(=O)c2c1` [6-carboxy-2-(β-phenyl-vinyl)-chromone], the inhibition in vivo at 50 mg/kg in experiment [1] (0.25 h, 15 min. pretreatment) is 69.9%; in experiment [1] (0.5 h, 30 min. pretreatment), 45.8%; in experiment [1] (1 h, 60 min. pretreatment) it was 19.6%; in experiment [1] (2 h, 120 min. pretreatment), 16.6%.
`O=C(O)c1ccc2oc(-c3ccccc3)cc(=O)c2c1` [6-carboxy-flavone]: the inhibition in vivo at 50 mg/kg is 32.1% in experiment [1] (0.25 h, 15 min. pretreatment); 23.5% in experiment [1] (0.5 h, 30 min. pretreatment); 6.8% in experiment [1] (1 h, 60 min. pretreatment); 3.4% in experiment [1] (2 h, 120 min. pretreatment).
Turning to `O=C(O)c1ccc2oc3ccc(OCCO)cc3c(=O)c2c1` [AH 7725, 2-carboxy-7-hydroxyethoxy-xanthone], the inhibition in vivo at 50 mg/kg in experiment [1] (0.25 h, 15 min. pretreatment) stood at 42.6%; in experiment [1] (0.5 h, 30 min. pretreatment), 14.4%; in experiment [1] (1 h, 60 min. pretreatment), 13.3%; in experiment [1] (2 h, 120 min. pretreatment) it was 3.8%.
Take `CC(C)Oc1ccccc1-c1cc(=O)c2cc(C(=O)[O-])ccc2o1.[Na+]` [6-carboxy-2'-isopropoxy-flavone sodium salt]: the “inhibition of the stress-induced ulcers” value in the experiment with stress-induced ulcers amounted to 45%.
As to `O=C(O)c1ccc2oc(-c3cccc(Cl)c3)cc(=O)c2c1` [6-carboxy-3'-chloro-flavone], the inhibition in vivo at 50 mg/kg in experiment [1] (0.25 h, 15 min. pretreatment) worked out at 31%; in experiment [1] (0.5 h, 30 min. pretreatment), 22.3%; in experiment [1] (1 h, 60 min. pretreatment), 5.9%; in experiment [1] (2 h, 120 min. pretreatment) it was 2.1%.
For `CC(C)Oc1ccccc1-c1cc(=O)c2cc(C(=O)O)ccc2o1` [6-carboxy-2'-isopropoxy-flavone], the “antagonizing the bronchoconstrictive effect of 5-HT” value in experiment [2] is recorded as 50%. The inhibition in vivo at 50 mg/kg worked out at 82.9% in experiment [1] (0.25 h, 15 min. pretreatment); 39.5% in experiment [1] (0.5 h, 30 min. pretreatment); 27.6% in experiment [1] (1 h, 60 min. pretreatment); 24.4% in experiment [1] (2 h, 120 min. pretreatment). The “antagonizing the bronchoconstrictive effect of compound 48/80” value in experiment [3] is 50%. Besides, the “effect on airway resistance” value in experiment [4] is on record as “lower the airway resistance”. Besides, the “effect on pulmonary compliance” value in experiment [4] is recorded as “increase pulmonary compliance”.
With `O=C(O)c1ccc2oc(-c3ccc(O)cc3)cc(=O)c2c1` [6-carboxy-4'-hydroxy-flavone], the inhibition in vivo at 50 mg/kg was found to be 9.2% in experiment [1] (0.25 h, 15 min. pretreatment); 4% in experiment [1] (0.5 h, 30 min. pretreatment); 3.7% in experiment [1] (1 h, 60 min. pretreatment); 3.9% in experiment [1] (2 h, 120 min. pretreatment).
Regarding `O=C(O)c1ccc2oc(-c3cnccn3)cc(=O)c2c1` [6-carboxy-2-(2'-pyrazinyl)-chromone], the inhibition in vivo at 50 mg/kg stood at 87% in experiment [1] (0.25 h, 15 min. pretreatment); 47.3% in experiment [1] (0.5 h, 30 min. pretreatment); 31.9% in experiment [1] (1 h, 60 min. pretreatment); 26.3% in experiment [1] (2 h, 120 min. pretreatment).
The like results for `O=C(O)c1cc(=O)c2c(OCC(O)COc3cccc4oc(C(=O)O)cc(=O)c34)cccc2o1` [DSCG, disodium cromoglycate] were, in that order, 6%, 5.5%, 3.2% and 2.5%.

These data come from patent US4083953A, “Pharmaceutical composition containing 5:6-benzo-alpha-pyrone derivatives and method of use thereof” (Carlo Erba, S.p.A., priority 1973, dated 1978).
